One experiment has as its target T1, DYRK1A protein (Homo sapiens, UniProt Q13627).
T1 construct: the peptide phosphorylated by His-DYRK1A-ΔC is separated from the unphosphorylated peptide; His (N)
As to the kind of experiment: DYRK1A activity assay (fluorescein peptide substrate, UFLC with fluorescence detection). Conditions: for pIC50: DYRK1A protein, ΔDYRK1A enzyme, 37° C. The format is biochemical.

In another experiment the test system is CAMKII protein. Put plainly: In vivo phosphorylation state of CAMKII in brain (slot-blot). Conditions: brain of TG animals (trisomy model for DYRK1A gene), intraperitoneal 1 mg/kg at t0 and t16 h, sacrifice t17-t18. The method, then:
(§1) To test in vivo the efficacy of these inhibitors, the effect of the compounds according to the invention on the phosphorylation state of two DYRK1A downstream targets in signaling pathways was measured: GSKIII beta protein (FIG. 1a) and CAMKII protein (FIG. 1b).
(§2) These measurements were carried out in the brain of control animals (WT) and of animals of an animal model of trisomy for DYRK1A gene (TG).
(§3) To that end, the compounds were administered by intraperitoneal injection in the amount of 1 mg/kg at t0 then at t16 (hours) and the animals were sacrificed at t17-t18. Brain proteins were then extracted and the amounts of GSKIIIbeta, pGSKIIIbeta, CAMKII and pCAMKII proteins were measured by a slot-blot technique with suitable antibodies.
(§4) The results of these tests are presented in FIG. 1: the y-axis represents the ratio of phosphorylated protein to unphosphorylated protein measured on the untreated animals (WT and TG) and on the animals treated with the compounds according to the invention.

In the next experiment the test system is GSKIII beta protein. As to the kind of experiment: In vivo phosphorylation state of GSKIII beta in brain (slot-blot). The note with it: brain of TG animals (trisomy model for DYRK1A gene), intraperitoneal 1 mg/kg at t0 and t16 h, sacrifice t17-t18. The method, then: as §1, §2, §3, §4

pIC50: −log10 of the molar value.

Turning to `Oc1ccc(-c2cnc3[nH]cc(-c4ccc(O)c(F)c4)c3c2)cc1` [I′h, 3-(3-fluoro-4-hydroxyphenyl)-5-(4-hydroxyphenyl)-1H-pyrrolo[2,3-b]pyridine], the pIC50 at DYRK1A protein is 8.03. On the same count and under the same terms, the same measure for `COc1ccc(-c2c[nH]c3ncc(-c4ccc(O)cc4)cc23)cc1F` [Ic, 3-(3-fluoro-4-methoxyphenyl)-5-(4-hydroxyphenyl)-1H-pyrrolo[2,3-b]pyridine]: 7.38. Still for that read-out and setting: the same measure for `c1ccc(-c2cnc3[nH]cc(-c4ccccc4)c3c2)cc1` [B, 3-phenyl-5-phenyl-1H-pyrrolo[2,3-b]pyridine]: 5.13.

On to `Oc1ccc(-c2cnc3[nH]cc(-c4ccc(O)c(O)c4)c3c2)cc1O` [I′c, 3-(3,4-dihydroxyphenyl)-5-(3,4-dihydroxyphenyl)-1H-pyrrolo[2,3-b]pyridine], for which, in the experiment on CAMKII protein, the “correction of hypophosphorylated CAMKII (pCAMKII/CAMKII ratio)” value (“correction … (pCAMKII/CAMKII ratio)” below) is listed as “do not produce a sufficient correction”. Further, the “correction of hyperphosphorylated GSKIIIbeta (pGSK/GSK ratio)” value (“correction … (pGSK/GSK ratio)” for short) in the experiment with GSKIII beta protein is “excessive correction”. On DYRK1A protein, this compound showed a pIC50 of 7.91. As to `Oc1ccc(-c2cnc3[nH]cc(-c4ccc(O)c(O)c4)c3c2)c(O)c1` [I′d, 3-(3,4-dihydroxyphenyl)-5-(2,4-dihydroxyphenyl)-1H-pyrrolo[2,3-b]pyridine], at DYRK1A protein, the pIC50 was 7.84. At DYRK1A protein, `Oc1ccc(-c2c[nH]c3ncc(-c4ccc(O)c(O)c4)cc23)cc1` [I′b, 3-(4-hydroxyphenyl)-5-(3,4-dihydroxyphenyl)-1H-pyrrolo[2,3-b]pyridine] showed a pIC50 of 8.52. Turning to `Oc1ccc(-c2cnc3[nH]cc(-c4ccccc4)c3c2)cc1O` [E, 3-phenyl-5-(3,4-dihydroxyphenyl)-1H-pyrrolo[2,3-b]pyridine], the pIC50 against DYRK1A protein is 6.80. This pIC50 lies 1.72 log units lower than the previous one. In turn, `Oc1ccccc1-c1cnc2[nH]cc(-c3ccccc3)c2c1` [Compound A, 3-phenyl-5-(2-hydroxyphenyl)-1H-pyrrolo[2,3-b]pyridine] had a pIC50 against DYRK1A protein of 5.44. On to “epigallocatechin-3-gallate [reference compound]”, for which the “IC50 values for known DYRK1A inhibitors” value at DYRK1A protein (validation of the test, compared with literature radioactive kinase tests) is listed as “Values similar to those of the literature”. Consider `Oc1ccc(-c2cnc3[nH]cc(-c4ccc(O)cc4)c3c2)cc1` [Ib, 3-(4-hydroxyphenyl)-5-(4-hydroxyphenyl)-1H-pyrrolo[2,3-b]pyridine], for which the “correction … (pCAMKII/CAMKII ratio)” value with CAMKII protein is reported as “return the phosphorylation level to the value observed in the control animals”. Further, the “correction … (pGSK/GSK ratio)” value with GSKIII beta protein is “effective correction”. The pIC50 at DYRK1A protein was 7.64. `Oc1ccc(O)c(-c2cnc3[nH]cc(-c4ccc(O)c(O)c4)c3c2)c1` [I′e, 3-(3,4-dihydroxyphenyl)-5-(2,5-dihydroxyphenyl)-1H-pyrrolo[2,3-b]pyridine] had a pIC50 against DYRK1A protein of 7.41. Same read-out and setting: the same measure for `Oc1cccc(-c2cnc3[nH]cc(-c4cccc(O)c4)c3c2)c1` [Ia, 3-(3-hydroxyphenyl)-5-(3-hydroxyphenyl)-1H-pyrrolo[2,3-b]pyridine]: 6.98; for `Oc1ccc(-c2cnc3[nH]cc(-c4ccccc4)c3c2)c(O)c1` [F, 3-phenyl-5-(2,4-dihydroxyphenyl)-1H-pyrrolo[2,3-b]pyridine]: 6.81. In the case of `Oc1ccc(-c2cnc3[nH]cc(-c4ccccc4)c3c2)cc1` [C, 3-phenyl-5-(4-hydroxyphenyl)-1H-pyrrolo[2,3-b]pyridine], the “correction … (pCAMKII/CAMKII ratio)” value in the experiment with CAMKII protein is “do not produce a sufficient correction”. The “correction … (pGSK/GSK ratio)” value in the experiment with GSKIII beta protein is on record as “excessive correction”. The compound also showed a pIC50 at DYRK1A protein of 6.49.

In the case of `Oc1ccc(-c2c[nH]c3ncc(-c4ccc(O)cc4O)cc23)cc1` [I′a, 3-(4-hydroxyphenyl)-5-(2,4-dihydroxyphenyl)-1H-pyrrolo[2,3-b]pyridine], the “correction … (pCAMKII/CAMKII ratio)” value in the experiment on CAMKII protein is given as “return the phosphorylation level to the value observed in the control animals”. For the same compound, the “correction … (pGSK/GSK ratio)” value with GSKIII beta protein is “effective correction”. In addition, the pIC50 against DYRK1A protein was 7.93.

For orientation: pIC50 means the negative decadic logarithm of the IC50, by convention in mol/L. Higher therefore signals a low IC50.
